Reference: patent US10285962B2, “Glutarate compounds for treating ischemia-reperfusion injuries” (The Regents of the University of California, priority 2016, dated 2019)

Tests used:
[1] = system: electron flow through the ETC (Complex I, II, IV); assay: electron flow through the ETC, OCR of isolated mouse heart mitochondria; type: biochemical
[2] = system: myocardial infarct size in IR injury; parameters: protection against IR injury (TTC stained cross-sections): dose or concentration left out as unconfirmed; conditions: for protection against IR injury (TTC stained cross-sections): single IV bolus at reperfusion
[3] = target: heart ATP synthase (complex V) (Mus musculus, UniProt P56480); assay: respiration of mitochondria isolated from mouse heart (ATP synthase / complex V inhibition)

Compound: O=C(O)CCC(=O)C(=O)O [α-KG, α-ketoglutarate]
- electron flow through the ETC ([1]; isolated mouse heart mitochondria): does not affect
- Complex I, Complex II, or Complex IV respiration ([1]; sequential rotenone, succinate, antimycin A, TMPD): No difference
- reduction of infarct size ([2]; mouse, in vivo): about 70%
- protection in the presence of the HIF-1 inhibitor echinomycin ([2]; mouse, in vivo, iv): fully protective
- complex V activity ([3]; […]): inhibits
- state 3 respiration ([3]; initiated by 2 mM ADP): decreases

Compound: O=C(O)CCC(=O)O [succinate]
- protection against IR injury (TTC stained cross-sections) [2]: does not

Compound: CC[C@H]1/C=C/C=C/C[C@@H](C)[C@H](O)[C@@](C)(O)C(=O)[C@@H](C)[C@H](O)[C@@H](C)C(=O)[C@@H](C)[C@H](O)[C@@H](C)/C=C/C(=O)O[C@@H]2[C@H](C)[C@H](CC1)O[C@]1(CC[C@H](C)[C@H](C[C@@H](C)O)O1)[C@H]2C [oligomycin]
- toxicity ([2]; 5 μM, administered at the time of reperfusion): toxic
- myocardial infarct size ([2]; lower doses (e.g., 10 nM) given at reperfusion): significantly reduce myocardial infarct size

Compound: CC(C)(COP(=O)(O)OP(=O)(O)OC[C@H]1O[C@@H](n2cnc3c(N)ncnc32)[C@H](O)[C@@H]1OP(=O)(O)O)[C@@H](O)C(=O)NCCC(=O)NCCSC(=O)CCC(=O)O [succinyl-CoA]
- protection against IR injury (TTC stained cross-sections) [2]: significant protection
